Assay results published in patent publication US5843889A, “Glycopeptide antibiotic derivatives” (Eli Lilly and Company, priority 1997, dated 1998).
In brackets after ≈: the same amount, converted by molar mass.

How the values were obtained:
Assay in all cases: MIC, standard broth micro-dilution assay
Type in all cases: cell-based
Entercoccus faecalis 276 = system: Entercoccus faecalis 276
Procedure: (§1) The formula I compounds have in vitro and in vivo activity against Gram-positive pathogenic bacteria. The MIC's were determined using a standard broth micro-dilution assay.

[1] = system: Entercoccus faecalis 2041
Procedure: as §1

[2] = system: Entercoccus gallinarum 245
Procedure: as §1

Row | SMILES | MIC (Entercoccus faecalis 276) [µg/mL] | MIC [1] [µg/mL] | MIC [2] [µg/mL]
1 | CNC(CC(C)C)C(=O)NC1C(=O)NC(CC(N)=O)C(=O)NC2C(=O)NC3C(=O)NC(C(=O)NC(C(=O)O)c4cc(O)cc(O)c4-c4cc3ccc4O)C(OC3CC(C)(N)C(O)C(C)O3)c3ccc(c(Cl)c3)Oc3cc2cc(c3OC2OC(CO)C(O)C(O)C2OC2CC(C)(NCc3ccc(-c4ccc(OC)c(OC)c4)cc3)C(O)C(C)O2)Oc2ccc(cc2Cl)C1O (stereo not drawn) [Compound 215, 4-[3,4-dimethoxyphenyl]benzyl] | 2 (≈ 1.1 µM) | – | –
2 | CNC(CC(C)C)C(=O)NC1C(=O)NC(CC(N)=O)C(=O)NC2C(=O)NC3C(=O)NC(C(=O)NC(C(=O)O)c4cc(O)cc(O)c4-c4cc3ccc4O)C(OC3CC(C)(N)C(O)C(C)O3)c3ccc(c(Cl)c3)Oc3cc2cc(c3OC2OC(CO)C(O)C(O)C2OC2CC(C)(NCc3c(OC)ccc4ccccc34)C(O)C(C)O2)Oc2ccc(cc2Cl)C1O (stereo not drawn) [Compound 9, 2-methoxy-1-naphthylmethyl] | 0.26 (≈ 0.148 µM) | – | –
3 | CN[C@H](CC(C)C)C(=O)N[C@H]1C(=O)N[C@@H](CC(N)=O)C(=O)N[C@H]2C(=O)N[C@H]3C(=O)N[C@H](C(=O)N[C@H](C(=O)O)c4cc(O)cc(O)c4-c4cc3ccc4O)[C@H](O[C@H]3C[C@](C)(N)[C@@H](O)[C@H](C)O3)c3ccc(c(Cl)c3)Oc3cc2cc(c3O[C@@H]2O[C@H](CO)[C@@H](O)[C@H](O)[C@H]2O[C@H]2C[C@](C)(NCc3ccc(Oc4ccc(C)cc4)cc3)[C@@H](O)[C@H](C)O2)Oc2ccc(cc2Cl)[C@H]1O [Compound 95, 4-[4-methylphenoxy]benzyl] | – | ≤ 0.06 | 1 (≈ 0.559 µM)
4 | CNC(CC(C)C)C(=O)NC1C(=O)NC(CC(N)=O)C(=O)NC2C(=O)NC3C(=O)NC(C(=O)NC(C(=O)O)c4cc(O)cc(O)c4-c4cc3ccc4O)C(OC3CC(C)(N)C(O)C(C)O3)c3ccc(c(Cl)c3)Oc3cc2cc(c3OC2OC(CO)C(O)C(O)C2OC2CC(C)(NCc3ccc(OCc4ccc([N+](=O)[O-])cc4)cc3)C(O)C(C)O2)Oc2ccc(cc2Cl)C1O (stereo not drawn) [Compound 131, 4-[4-nitrobenzyloxy]benzyl] | – | ≤ 0.06 | 2 (≈ 1.09 µM)
5 | CNC(CC(C)C)C(=O)NC1C(=O)NC(CC(N)=O)C(=O)NC2C(=O)NC3C(=O)NC(C(=O)NC(C(=O)O)c4cc(O)cc(O)c4-c4cc3ccc4O)C(OC3CC(C)(N)C(O)C(C)O3)c3ccc(c(Cl)c3)Oc3cc2cc(c3OC2OC(CO)C(O)C(O)C2OC2CC(C)(NCc3ccc(-c4ccc(C(F)(F)F)cc4)cc3)C(O)C(C)O2)Oc2ccc(cc2Cl)C1O (stereo not drawn) [Compound 216, 4-[4-trifluromethylphenyl]benzyl] | 0.5 (≈ 0.274 µM) | – | –
6 | CNC(CC(C)C)C(=O)NC1C(=O)NC(CC(N)=O)C(=O)NC2C(=O)NC3C(=O)NC(C(=O)NC(C(=O)O)c4cc(O)cc(O)c4-c4cc3ccc4O)C(OC3CC(C)(N)C(O)C(C)O3)c3ccc(c(Cl)c3)Oc3cc2cc(c3OC2OC(CO)C(O)C(O)C2OC2CC(C)(NCc3ccc4c(c3)CCc3ccccc3-4)C(O)C(C)O2)Oc2ccc(cc2Cl)C1O (stereo not drawn) [Compound 220] | – | ≤ 0.06 | 0.5 (≈ 0.28 µM)
7 | CNC(CC(C)C)C(=O)NC1C(=O)NC(CC(N)=O)C(=O)NC2C(=O)NC3C(=O)NC(C(=O)NC(C(=O)O)c4cc(O)cc(O)c4-c4cc3ccc4O)C(OC3CC(C)(N)C(O)C(C)O3)c3ccc(c(Cl)c3)Oc3cc2cc(c3OC2OC(CO)C(O)C(O)C2OC2CC(C)(NCc3ccc(C(F)(F)F)cc3)C(O)C(C)O2)Oc2ccc(cc2Cl)C1O (stereo not drawn) [Compound 37, 4-trifluoromethylbenzyl] | 1 (≈ 0.571 µM) | – | –
8 | CCN(CC)CCOc1ccc(CNC2(C)CC(OC3C(Oc4c5cc6cc4Oc4ccc(cc4Cl)C(OC4CC(C)(N)C(O)C(C)O4)C4NC(=O)C(NC(=O)C6NC(=O)C(CC(N)=O)NC(=O)C(NC(=O)C(CC(C)C)NC)C(O)c6ccc(c(Cl)c6)O5)c5ccc(O)c(c5)-c5c(O)cc(O)cc5C(C(=O)O)NC4=O)OC(CO)C(O)C3O)OC(C)C2O)cc1 (stereo not drawn) [Compound 83, 4-[2-[N,N-diethylamino]ethoxy]benzyl] | – | 0.5 (≈ 0.278 µM) | 0.5 (≈ 0.278 µM)
9 | CNC(CC(C)C)C(=O)NC1C(=O)NC(CC(N)=O)C(=O)NC2C(=O)NC3C(=O)NC(C(=O)NC(C(=O)O)c4cc(O)cc(O)c4-c4cc3ccc4O)C(OC3CC(C)(N)C(O)C(C)O3)c3ccc(c(Cl)c3)Oc3cc2cc(c3OC2OC(CO)C(O)C(O)C2OC2CC(C)(NCC3CCCCC3)C(O)C(C)O2)Oc2ccc(cc2Cl)C1O (stereo not drawn) [Compound 161, cyclohexylmethyl] | – | ≤ 0.06 | 8 (≈ 4.74 µM)
10 | CNC(CC(C)C)C(=O)NC1C(=O)NC(CC(N)=O)C(=O)NC2C(=O)NC3C(=O)NC(C(=O)NC(C(=O)O)c4cc(O)cc(O)c4-c4cc3ccc4O)C(OC3CC(C)(N)C(O)C(C)O3)c3ccc(c(Cl)c3)Oc3cc2cc(c3OC2OC(CO)C(O)C(O)C2OC2CC(C)(NCC3=CCC(C(C)C)CC3)C(O)C(C)O2)Oc2ccc(cc2Cl)C1O (stereo not drawn) [Compound 171, 1-cyclohexenyl-4-isopropylmethyl] | – | ≤ 0.06 | 8 (≈ 4.63 µM)
11 | CNC(CC(C)C)C(=O)NC1C(=O)NC(CC(N)=O)C(=O)NC2C(=O)NC3C(=O)NC(C(=O)NC(C(=O)O)c4cc(O)cc(O)c4-c4cc3ccc4O)C(OC3CC(C)(N)C(O)C(C)O3)c3ccc(c(Cl)c3)Oc3cc2cc(c3OC2OC(CO)C(O)C(O)C2OC2CC(C)(NCc3ccc(OCCCC#N)cc3)C(O)C(C)O2)Oc2ccc(cc2Cl)C1O (stereo not drawn) [Compound 55, 4-[3-cyanopropoxy]benzyl] | 0.5 (≈ 0.283 µM) | – | –
12 | CNC(CC(C)C)C(=O)NC1C(=O)NC(CC(N)=O)C(=O)NC2C(=O)NC3C(=O)NC(C(=O)NC(C(=O)O)c4cc(O)cc(O)c4-c4cc3ccc4O)C(OC3CC(C)(N)C(O)C(C)O3)c3ccc(cc3)Oc3cc2cc(c3OC2OC(CO)C(O)C(O)C2OC2CC(C)(NCc3ccc(-c4ccccc4)cc3)C(O)C(C)O2)Oc2ccc(cc2)C1O (stereo not drawn) [Compound 183, 4-phenylbenzyl] | – | ≤ 0.06 | 0.5 (≈ 0.296 µM)
13 | CNC(CC(C)C)C(=O)NC1C(=O)NC(CC(N)=O)C(=O)NC2C(=O)NC3C(=O)NC(C(=O)NC(C(=O)O)c4cc(O)cc(O)c4-c4cc3ccc4O)C(OC3CC(C)(N)C(O)C(C)O3)c3ccc(c(Cl)c3)Oc3cc2cc(c3OC2OC(CO)C(O)C(O)C2OC2CC(C)(NCc3ccc(-c4ccc(C)c(C)c4)cc3)C(O)C(C)O2)Oc2ccc(cc2Cl)C1O (stereo not drawn) [Compound 221, 4-[3,4-dimethylphenyl]benzyl] | – | ≤ 0.06 | 2 (≈ 1.12 µM)
14 | CN[C@H](CC(C)C)C(=O)N[C@H]1C(=O)N[C@@H](CC(N)=O)C(=O)N[C@H]2C(=O)N[C@H]3C(=O)N[C@H](C(=O)N[C@H](C(=O)O)c4cc(O)cc(O)c4-c4cc3ccc4O)[C@H](O[C@H]3C[C@](C)(N)[C@@H](O)[C@H](C)O3)c3ccc(c(Cl)c3)Oc3cc2cc(c3O[C@@H]2O[C@H](CO)[C@@H](O)[C@H](O)[C@H]2O[C@H]2C[C@](C)(NCc3ccc(Oc4ccc(Cl)cc4)c([N+](=O)[O-])c3)[C@@H](O)[C@H](C)O2)Oc2ccc(cc2Cl)[C@H]1O [Compound 94, 4-[4-chlorophenoxy]-3-nitrobenzyl] | – | ≤ 0.06 | 2 (≈ 1.08 µM)
15 | CNC(CC(C)C)C(=O)NC1C(=O)NC(CC(N)=O)C(=O)NC2C(=O)NC3C(=O)NC(C(=O)NC(C(=O)O)c4cc(O)cc(O)c4-c4cc3ccc4O)C(OC3CC(C)(N)C(O)C(C)O3)c3ccc(c(Cl)c3)Oc3cc2cc(c3OC2OC(CO)C(O)C(O)C2OC2CC(C)(NCc3ccc(I)s3)C(O)C(C)O2)Oc2ccc(cc2Cl)C1O (stereo not drawn) [Compound 74, 5-iodo-2-thienylmethyl] | – | ≤ 0.06 | ≤ 0.06
16 | CNC(CC(C)C)C(=O)NC1C(=O)NC(CC(N)=O)C(=O)NC2C(=O)NC3C(=O)NC(C(=O)NC(C(=O)O)c4cc(O)cc(O)c4-c4cc3ccc4O)C(OC3CC(C)(N)C(O)C(C)O3)c3ccc(c(Cl)c3)Oc3cc2cc(c3OC2OC(CO)C(O)C(O)C2OC2CC(C)(NCc3ccncc3)C(O)C(C)O2)Oc2ccc(cc2Cl)C1O (stereo not drawn) [Compound 26, 4-pyridylmethyl] | ≤ 0.06 | – | –
17 | CNC(CC(C)C)C(=O)NC1C(=O)NC(CC(N)=O)C(=O)NC2C(=O)NC3C(=O)NC(C(=O)NC(C(=O)O)c4cc(O)cc(O)c4-c4cc3ccc4O)C(OC3CC(C)(N)C(O)C(C)O3)c3ccc(c(Cl)c3)Oc3cc2cc(c3OC2OC(CO)C(O)C(O)C2OC2CC(C)(NCCCCCCc3ccccc3)C(O)C(C)O2)Oc2ccc(cc2Cl)C1O (stereo not drawn) [Compound 196, 6-phenylhexyl] | – | ≤ 0.06 | 1 (≈ 0.571 µM)
18 | CNC(CC(C)C)C(=O)NC1C(=O)NC(CC(N)=O)C(=O)NC2C(=O)NC3C(=O)NC(C(=O)NC(C(=O)O)c4cc(O)cc(O)c4-c4cc3ccc4O)C(OC3CC(C)(N)C(O)C(C)O3)c3ccc(c(Cl)c3)Oc3cc2cc(c3OC2OC(CO)C(O)C(O)C2OC2CC(C)(NCC3CCC(COCc4ccccc4)CC3)C(O)C(C)O2)Oc2ccc(cc2Cl)C1O (stereo not drawn) [Compound 239] | – | ≤ 0.06 | 1 (≈ 0.553 µM)
19 | CNC(CC(C)C)C(=O)NC1C(=O)NC(CC(N)=O)C(=O)NC2C(=O)NC3C(=O)NC(C(=O)NC(C(=O)O)c4cc(O)cc(O)c4-c4cc3ccc4O)C(OC3CC(C)(N)C(O)C(C)O3)c3ccc(c(Cl)c3)Oc3cc2cc(c3OC2OC(CO)C(O)C(O)C2OC2CC(C)(NCc3ccc4c(c3)CCCC4)C(O)C(C)O2)Oc2ccc(cc2Cl)C1O (stereo not drawn) [Compound 168] | – | ≤ 0.06 | 2 (≈ 1.15 µM)
20 | C=CCCCOc1ccc(CNC2(C)CC(OC3C(Oc4c5cc6cc4Oc4ccc(cc4Cl)C(OC4CC(C)(N)C(O)C(C)O4)C4NC(=O)C(NC(=O)C6NC(=O)C(CC(N)=O)NC(=O)C(NC(=O)C(CC(C)C)NC)C(O)c6ccc(c(Cl)c6)O5)c5ccc(O)c(c5)-c5c(O)cc(O)cc5C(C(=O)O)NC4=O)OC(CO)C(O)C3O)OC(C)C2O)cc1 (stereo not drawn) [Compound 226, 4-[4-pentenyloxy]benzyl] | – | ≤ 0.06 | 1 (≈ 0.566 µM)
21 | CNC(CC(C)C)C(=O)NC1C(=O)NC(CC(N)=O)C(=O)NC2C(=O)NC3C(=O)NC(C(=O)NC(C(=O)O)c4cc(O)cc(O)c4-c4cc3ccc4O)C(OC3CC(C)(N)C(O)C(C)O3)c3ccc(c(Cl)c3)Oc3cc2cc(c3OC2OC(CO)C(O)C(O)C2OC2CC(C)(NCCCCc3ccc(OC)cc3)C(O)C(C)O2)Oc2ccc(cc2Cl)C1O (stereo not drawn) [Compound 172, 4-[4-methoxyphenyl]butyl] | – | ≤ 0.06 | 2 (≈ 1.14 µM)
